Drawing on PubChem BioAssay AID651630 (Sanford-Burnham Center for Chemical Genomics, 2012), this text covers IC50 cytotoxicity (DAPI nuclear signal decrease) and IC50 for 27 compounds.

Each structure is given as a SMILES string. Active and inactive are the calls of the source.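 Rule for the calls: active = lipid-stain IC50 at or below a set limit, with nuclear-stain toxicity IC50 at least five times higher; inactive = the rest.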 Bounds are passed on as bounds.

One test relates to DAPI. In words: triacylglycerol accumulation inhibitor potency, dose response, cell-based, panel, Nile Red and DAPI fluorescence, H9c2 (AID 651630).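 Note: cells exposed to compound overnight before fixation and staining.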 Conditions: H9c2 cells, DAPI nuclear fluorescence (cytotoxicity counter-readout), oleic acid.
In another test the test system is TAG. Described as above. Conditions: H9c2 cells, Nile Red TAG fluorescence, oleic acid.

As a reminder, the IC50 is the concentration at which inhibition is half-maximal. For `O=C(CCl)Nc1cc2[nH]c(=O)[nH]c2cc1Br`, the IC50 cytotoxicity (DAPI nuclear signal decrease) was 15 µM (inactive) in the test with DAPI (mean of runs), 11.7 µM with DAPI (run 1) and 18.3 µM with DAPI (run 2). The figures for the IC50 in the test with TAG (mean of runs), in the test on TAG (run 1) and with TAG (run 2) were 9.37 µM, 5.97 µM and 12.8 µM, respectively.

For the compound `O=C(Nc1ccc([N+](=O)[O-])cn1)c1cc(-c2cccc(Cl)c2)nc2ccccc12`, the IC50 cytotoxicity (DAPI nuclear signal decrease) in the test with DAPI (run 1) and with DAPI (run 2) was over 25 µM throughout. In addition, the concentration for half-maximal inhibition (IC50) with TAG (mean of runs) was 3.69 µM; in the test with TAG (run 1), 3.93 µM; with TAG (run 2), 3.46 µM.

As for `CCOC(=O)[C@H]1[C@H]2COc3ccc(Br)cc3[C@@H]2N2C(=O)c3cc(Br)ccc3NC(=O)[C@@]12C`, the IC50 cytotoxicity (DAPI nuclear signal decrease) is > 25 µM (inactive) in the test with DAPI (mean of runs), over 25 µM in the test with DAPI (run 1) and over 25 µM with DAPI (run 2). For the same compound, the IC50 in the test with TAG (mean of runs) was > 25 µM (inactive); in the test on TAG (run 1) it was over 25 µM; with TAG (run 2) it was over 25 µM.

Take `Clc1cccc(Nc2nc(-c3ccncc3)nc3ccccc23)c1`: the IC50 cytotoxicity (DAPI nuclear signal decrease) is > 25 µM (inactive) in the test with DAPI (mean of runs), over 25 µM with DAPI (run 1) and over 25 µM in the test on DAPI (run 2). Also, the concentration for half-maximal inhibition (IC50) in the test with TAG (run 1) is 18.9 µM; with TAG (run 2) it was over 25 µM.

As to `CC(C)CC(N)c1csc(NC(=O)Nc2ccccc2Cc2ccccc2)n1` (configuration not stated), the IC50 cytotoxicity (DAPI nuclear signal decrease) was 20.4 µM in the test on DAPI (run 1) and over 25 µM in the test on DAPI (run 2). Moreover, the values for the IC50 in the test with TAG (mean of runs), in the test with TAG (run 1) and with TAG (run 2) were > 25 µM (inactive), over 25 µM and over 25 µM, respectively.

With `O=C(Nc1cccc(-c2csc(Nc3ccc(Cl)cc3)n2)c1)c1cc([N+](=O)[O-])cc(C(F)(F)F)c1`, the results for the IC50 cytotoxicity (DAPI nuclear signal decrease) with DAPI (mean of runs), with DAPI (run 1) and in the test on DAPI (run 2) were > 25 µM (inactive), over 25 µM and over 25 µM, respectively. Also, the concentration for half-maximal inhibition (IC50) in the test with TAG (mean of runs) was 13.9 µM; in the test with TAG (run 1), 13.4 µM; in the test on TAG (run 2), 14.4 µM.

Turning to `COc1ccc(C[C@H]2CN3C(=NC[C@@H]3Cc3ccc(O)cc3)N2CCNC(=O)c2ccc(C)c(Br)c2)cc1`, the IC50 cytotoxicity (DAPI nuclear signal decrease) in the test on DAPI (run 1) is 24 µM; in the test with DAPI (run 2) it was over 25 µM. Also, the IC50 with TAG (mean of runs) was > 25 µM (inactive); in the test on TAG (run 1), over 25 µM; in the test on TAG (run 2) it was over 25 µM.

`O=C1N[C@@H](Cc2ccccc2)COC(=O)[C@@H](Cc2ccc(F)cc2)CC/C=C/C[C@@H]1CC(=O)N(CCO)Cc1ccccc1`: the IC50 cytotoxicity (DAPI nuclear signal decrease) is > 25 µM (inactive) in the test with DAPI (mean of runs), over 25 µM in the test on DAPI (run 1) and over 25 µM in the test with DAPI (run 2). The IC50 in the test on TAG (mean of runs) is 20.4 µM (inactive); in the test on TAG (run 1) it was 18.5 µM; in the test on TAG (run 2), 22.3 µM.

With `CN(C)c1ccc(NC(=O)CSc2nc3ccccc3c(=O)n2C2CCCCC2)cc1`, the IC50 cytotoxicity (DAPI nuclear signal decrease) was > 25 µM (inactive) in the test with DAPI (mean of runs), over 25 µM in the test with DAPI (run 1) and over 25 µM with DAPI (run 2). In addition, the half-maximal inhibitory concentration (IC50) in the test on TAG (run 1) is over 25 µM; with TAG (run 2), 20 µM.

As to `COc1ccc2[nH]c3c(c2c1)CCN1C(=O)C(CC(=O)NCC24CC5CC(CC(C5)C2)C4)C[C@H](C(=O)N2CCOCC2)[C@@]31CCC1CCCC1` (some centres not stated), the IC50 cytotoxicity (DAPI nuclear signal decrease) in the test on DAPI (mean of runs) is > 25 µM (inactive); in the test with DAPI (run 1) it was over 25 µM; in the test on DAPI (run 2), over 25 µM. The IC50 in the test with TAG (run 1) is 4.99 µM; with TAG (run 2), over 25 µM.

On to `O=C(c1ccoc1)N1CCN(c2cc(-c3ccccc3)nc3cc(-c4ccc(Br)cc4)nn23)CC1`, for which the IC50 cytotoxicity (DAPI nuclear signal decrease) with DAPI (mean of runs) was > 25 µM (inactive); with DAPI (run 1) it was over 25 µM; with DAPI (run 2), over 25 µM. Besides, the IC50 in the test on TAG (mean of runs) is 12.1 µM; with TAG (run 1) it was 12.8 µM; in the test with TAG (run 2), 11.3 µM.

In the case of `Cn1nnc2c[n+](CC(=O)c3ccc(Cl)cc3)cc(Br)c21`, the IC50 cytotoxicity (DAPI nuclear signal decrease) was 21.5 µM (inactive) in the test with DAPI (mean of runs), 20.9 µM with DAPI (run 1) and 22.1 µM with DAPI (run 2). Also, the IC50 in the test with TAG (mean of runs) was 13.5 µM; with TAG (run 1), 13.9 µM; in the test with TAG (run 2), 13.2 µM.

On to `Cc1cc(NC(=O)c2ccccc2F)n(-c2nc3ccccc3[nH]2)n1`, for which the values for the IC50 cytotoxicity (DAPI nuclear signal decrease) in the test with DAPI (mean of runs), with DAPI (run 1) and in the test on DAPI (run 2) were > 25 µM (inactive), over 25 µM and over 25 µM, respectively. Besides, the IC50 with TAG (mean of runs) was 16.8 µM (inactive); with TAG (run 1) it was 16.8 µM; in the test on TAG (run 2), 16.9 µM.

In the case of `Nc1c(C(=O)NCc2ccccc2)sc2nc(N3CCOCC3)c3c(c12)CCCC3`, the results for the IC50 cytotoxicity (DAPI nuclear signal decrease) with DAPI (mean of runs), in the test with DAPI (run 1) and in the test on DAPI (run 2) were > 25 µM (inactive), over 25 µM and over 25 µM, respectively. Also, the figures for the IC50 with TAG (mean of runs), in the test with TAG (run 1) and with TAG (run 2) were > 25 µM (inactive), over 25 µM and over 25 µM, respectively.

For `CCOc1cc2c(cc1O)CCC1C2CCC2(C)C(O)CCC12` (configuration not stated), the IC50 cytotoxicity (DAPI nuclear signal decrease) in the test with DAPI (mean of runs) was > 25 µM (inactive); with DAPI (run 1) it was over 25 µM; in the test on DAPI (run 2), over 25 µM. Further, the IC50 is 17.4 µM in the test with TAG (run 1) and over 25 µM with TAG (run 2).

For the compound `N=c1n(CCO)c2ccccc2n1CCOc1ccc(Cl)cc1Cl`, the IC50 cytotoxicity (DAPI nuclear signal decrease) in the test on DAPI (mean of runs) was 22.3 µM (inactive); in the test with DAPI (run 1), 21.4 µM; in the test on DAPI (run 2), 23.1 µM. The IC50 with TAG (mean of runs) was > 25 µM (inactive); in the test with TAG (run 1), over 25 µM; in the test with TAG (run 2), over 25 µM.

With `O=C(Nc1nc2ccc(C(=O)N3CCCCC3)cc2s1)C1CCCCC1`, the IC50 cytotoxicity (DAPI nuclear signal decrease) with DAPI (mean of runs) is > 25 µM (inactive); in the test on DAPI (run 1) it was over 25 µM; in the test on DAPI (run 2), over 25 µM. Further, the IC50 with TAG (mean of runs) was 15.4 µM (inactive); with TAG (run 1), 10.6 µM; in the test with TAG (run 2), 20.2 µM.

`C#CCN(C[C@H]1[C@H](OC(=O)NCC2CCCCC2)[C@H](OC(=O)NCC2CCCCC2)C[C@@H](C(=O)OC)[C@H]1C(=O)OC)S(=O)(=O)c1ccc(C)cc1`: the IC50 cytotoxicity (DAPI nuclear signal decrease) in the test on DAPI (run 1) and in the test on DAPI (run 2) was over 25 µM in each case. Further, the IC50 was 4.93 µM with TAG (mean of runs), 4.53 µM in the test with TAG (run 1) and 5.33 µM in the test with TAG (run 2).

With `COc1ccc(NS(=O)(=O)c2cccc(C(=O)N/N=C/c3cn(-c4ccccc4)nc3-c3ccccc3)c2)cc1`, the figures for the IC50 cytotoxicity (DAPI nuclear signal decrease) in the test with DAPI (mean of runs), in the test on DAPI (run 1) and in the test on DAPI (run 2) were > 25 µM (inactive), over 25 µM and over 25 µM, respectively. The results for the IC50 in the test with TAG (mean of runs), with TAG (run 1) and in the test with TAG (run 2) were 8.79 µM, 7.63 µM and 9.96 µM, respectively.

As for `COc1ccc(NC(=O)N(C)[C@H]2C[C@H]3c4[nH]c5ccc(-c6ccc7c(c6)OCO7)cc5c4CCN3C[C@H]2[C@H](C)O)cc1`, the results for the IC50 cytotoxicity (DAPI nuclear signal decrease) in the test on DAPI (mean of runs), with DAPI (run 1) and with DAPI (run 2) were > 25 µM (inactive), over 25 µM and over 25 µM, respectively. For the same compound, the IC50 is 7.49 µM in the test on TAG (mean of runs), 8.2 µM in the test on TAG (run 1) and 6.77 µM in the test on TAG (run 2).

As to `O=C(CCl)N(CCCNC(=O)C(F)(F)F)c1ccc([N+](=O)[O-])cc1`, the IC50 cytotoxicity (DAPI nuclear signal decrease) with DAPI (mean of runs) is > 25 µM (inactive); in the test on DAPI (run 1), over 25 µM; in the test on DAPI (run 2), over 25 µM. In addition, the IC50 in the test with TAG (mean of runs) was > 25 µM (inactive); with TAG (run 1), over 25 µM; with TAG (run 2) it was over 25 µM.

Turning to `Cc1cc(NC(=O)CSc2nc(-c3ccco3)cc(C(F)(F)F)n2)no1`, the IC50 cytotoxicity (DAPI nuclear signal decrease) in the test on DAPI (mean of runs) is > 25 µM (inactive); in the test on DAPI (run 1) it was over 25 µM; in the test on DAPI (run 2), over 25 µM. Moreover, the results for the IC50 with TAG (mean of runs), with TAG (run 1) and in the test on TAG (run 2) were > 25 µM (inactive), over 25 µM and over 25 µM, respectively.

Regarding `Cc1ccc(S(=O)(=O)NC2=C(N3CCN(c4ccccc4F)CC3)C(=O)c3ccccc3C2=O)cc1`, the IC50 cytotoxicity (DAPI nuclear signal decrease) was > 25 µM (inactive) with DAPI (mean of runs), over 25 µM in the test with DAPI (run 1) and over 25 µM with DAPI (run 2). Moreover, the values for the half-inhibitory concentration (IC50) in the test on TAG (mean of runs), with TAG (run 1) and in the test with TAG (run 2) were 8.82 µM, 8.52 µM and 9.11 µM, respectively.

Consider `COc1ccc(C(=O)Nc2sc3c(c2C(=O)NCc2ccco2)CCCC3)cc1OC`, for which the results for the IC50 cytotoxicity (DAPI nuclear signal decrease) in the test with DAPI (mean of runs), in the test on DAPI (run 1) and in the test with DAPI (run 2) were > 25 µM (inactive), over 25 µM and over 25 µM, respectively. Besides, the IC50 in the test with TAG (mean of runs) was > 25 µM (inactive); with TAG (run 1), over 25 µM; in the test on TAG (run 2) it was over 25 µM.

With `COc1cc(-c2ccc3oc(-c4cccc(C)c4)c(C#CC4(O)CCCCC4)c3c2)cc(OC)c1OC`, the IC50 cytotoxicity (DAPI nuclear signal decrease) is > 25 µM (inactive) in the test on DAPI (mean of runs), over 25 µM in the test with DAPI (run 1) and over 25 µM with DAPI (run 2). For the same compound, the IC50 was 15.9 µM (inactive) in the test with TAG (mean of runs), 14.2 µM with TAG (run 1) and 17.6 µM in the test with TAG (run 2).

Consider `COC(=O)c1ccc(Oc2cc(C)nc(SC)n2)cc1`, for which the IC50 cytotoxicity (DAPI nuclear signal decrease) with DAPI (mean of runs) was > 25 µM (inactive); in the test with DAPI (run 1), over 25 µM; in the test with DAPI (run 2) it was over 25 µM. For the same compound, the concentration for half-maximal inhibition (IC50) is over 25 µM in the test with TAG (run 1) and 14.1 µM in the test with TAG (run 2).

Regarding `CC(Sc1nc(NCc2ccccc2)nc(N2CCOCC2)n1)C(=O)Nc1ccccc1` (configuration not stated), the IC50 cytotoxicity (DAPI nuclear signal decrease) with DAPI (run 1) and in the test with DAPI (run 2) was over 25 µM throughout. The 50% inhibitory concentration (IC50) was 1.44 µM with TAG (mean of runs), 1.29 µM in the test with TAG (run 1) and 1.58 µM with TAG (run 2).
